Source: patent publication US20230263822A1, “MODULATION OF FACTOR 11 EXPRESSION” (Ionis Pharmaceuticals, Inc., priority 2008, published 2023)
Read-outs that look alike come from different tables or passages of the source. Strand notation (5' to 3'): a small letter for the sugar, then the base; units joined by * are phosphorothioate-linked, units joined directly phosphodiester-linked; [ ] holds rarer units or linkages, { } end groups; capitals alone tell only the bases. e = 2'-O-(2-methoxyethyl) (MOE); [5mC] = 5-methylcytosine; d = 2'-deoxy (DNA)

Tests used:
[1] = test system: murine Factor 11 mRNA; assay: In vivo antisense inhibition of murine Factor 11 mRNA in liver (Example 10); settings: BALB/c mice, relative to PBS control
Experimental: BALB/c mice were injected with 5 mg/kg, 10 mg/kg, 25 mg/kg, or 50 mg/kg of ISIS 404057 or ISIS 404071 twice a week for 3 weeks. A control group of mice was injected with phosphate buffered saline (PBS) twice a week for 3 weeks. Mice were sacrificed 5 days after receiving the last dose. Whole liver was harvested for RNA analysis and plasma was collected for clotting analysis (PT and aPTT) and protein analysis.
RNA was extracted from liver tissue for real-time PCR analysis of Factor 11. […] Results are presented as percent inhibition of Factor 11, relative to control.

[2] = test system: mouse Factor 11 mRNA; assay: Cross-reactive antisense inhibition of murine Factor 11 in primary mouse hepatocytes, 100 nM (Example 9); assay type: cell-based; settings: ~24 hours
Experimental: Antisense oligonucleotides targeted to a murine factor 11 nucleic acid were tested for their effects on Factor 11 mRNA in vitro. Cultured primary mouse hepatocytes at a density of 10,000 cells per well were treated with 100 nM antisense oligonucleotide. After a treatment period of approximately 24 hours, RNA was isolated from the cells and mouse Factor 11 mRNA levels were measured by quantitative real-time PCR. Factor 11 mRNA levels were adjusted according to total RNA content, as measured by RIBOGREEN. Results are presented as percent inhibition of Factor 11, relative to untreated control cells.
The chimeric antisense oligonucleotides in Tables 16 were designed as 5-10-5 MOE gapmers. The gapmers are 20 nucleotides in length, wherein the central gap segment is comprised of 10 2′-deoxynucleotides and is flanked on both sides (in the 5′ and 3′ directions) by wings comprising 5 nucleotides each. Each nucleotide in the 5′ wing segment and each nucleotide in the 3′ wing segment has a 2′-MOE modification. The internucleoside linkages throughout each gapmer are phosphorothioate (P=S) linkages. All cytidine residues throughout each gapmer are 5-methylcytidines. “Mouse target start site” indicates the 5′-most nucleotide to which the gapmer is targeted. “Mouse target stop site” indicates the 3′-most nucleotide to which the gapmer is targeted. All the mouse oligonucleotides listed show cross-reactivity between the mouse Factor 11 mRNA (GENBANK Accession No. NM_028066.1), incorporated herein as SEQ ID NO: 6 and the human Factor 11 mRNA (GENBANK Accession No. NM_000128.3), incorporated herein as SEQ ID NO: 1. “Human Target Start Site” indicates the 5′-most nucleotide in the human mRNA (GENBANK Accession No. NM_000128.3) to which the antisense oligonucleotide is targeted. “Human Target Stop Site” indicates the 3′-most nucleotide in the human mRNA (GENBANK Accession No. NM_000128.3) to which the antisense oligonucleotide is targeted. “Number of mismatches” indicates the mismatches between the mouse oligonucleotide and the human mRNA sequence.

[3] = mouse, in vivo, sc, 50 mg/kg
[4] = mouse, in vivo, sc, 50 mg/kg; remark: listed apart in the source
[5] = mouse, in vivo, sc, 50 mg/kg; remark: listed apart in the source
[6] = rat, in vivo, sc, 50 mg/kg
[7] = rat, in vivo, sc, 50 mg/kg; remark: listed apart in the source
[8] = rat, in vivo, sc, 50 mg/kg; remark: listed apart in the source
[9] = 5 mg/kg twice a week for 3 weeks
[10] = 10 mg/kg twice a week for 3 weeks
[11] = 25 mg/kg twice a week for 3 weeks
[12] = 50 mg/kg twice a week for 3 weeks

Row | Substance | % Inhibition of mouse Factor 11 mRNA levels [2] [%] | ALT [3] [IU/L] | AST [3] [IU/L] | Albumin [3] | Bilirubin [3] [mg/dL] | BUN [4] [mg/dL] | HCT [5] [%] | Lymphocyte [5] | Neutrophil [5] | Platelets [5] | RBC [5] | WBC [5] | hemoglobin [5] [g/dL] | ALT [6] [IU/L] | AST [6] [IU/L] | Albumin [6] | Bilirubin [6] [mg/dL] | BUN [7] [mg/dL] | Creatinine [7] [mg/dL] | Urine protein/creatinine ratio [7] | further results
1 | 404057 (eT*e[5mC]*e[5mC]*eT*eG*dG*d[5mC]*dA*dT*dT*d[5mC]*dT*d[5mC]*dG*dA*eG*e[5mC]*eA*eT*eT) [compound 404057] |  |  |  |  |  |  |  |  |  |  |  |  |  |  |  |  |  |  |  |  | % inhibition of murine Factor 11 mRNA [1, 9]: 40%; % inhibition of murine Factor 11 mRNA [1, 10]: 64%; % inhibition of murine Factor 11 mRNA [1, 11]: 85%; % inhibition of murine Factor 11 mRNA [1, 12]: 95%
2 | 404071 (antisense eT*eG*eG*eT*eA*dA*dT*d[5mC]*d[5mC]*dA*d[5mC]*dT*dT*dT*d[5mC]*eA*eG*eA*eG*eG) [compound 404071] |  |  |  |  |  |  |  |  |  |  |  |  |  |  |  |  |  |  |  |  | % inhibition of murine Factor 11 mRNA [1, 9]: 72%; % inhibition of murine Factor 11 mRNA [1, 10]: 82%; % inhibition of murine Factor 11 mRNA [1, 11]: 93%; % inhibition of murine Factor 11 mRNA [1, 12]: 96%
3 | 404083 (antisense eT*eG*eT*eG*e[5mC]*dA*dG*dA*dG*dT*d[5mC]*dA*d[5mC]*d[5mC]*dT*eG*e[5mC]*e[5mC]*eA*eT) [compound 404083] | 47 |  |  |  |  |  |  |  |  |  |  |  |  |  |  |  |  |  |  |  | 
4 | 404087 (antisense eT*eT*e[5mC]*eT*eT*dG*dA*dA*d[5mC]*d[5mC]*d[5mC]*dT*dG*dA*dA*eG*eA*eA*eA*eG) [compound 404087] | 29 |  |  |  |  |  |  |  |  |  |  |  |  |  |  |  |  |  |  |  | 
5 | 404089 (antisense eT*eG*eA*eA*eT*dT*dA*dT*d[5mC]*dA*dT*dT*dT*d[5mC]*dT*eT*eG*eA*eA*e[5mC]) [compound 404089] | 6 |  |  |  |  |  |  |  |  |  |  |  |  |  |  |  |  |  |  |  | 
6 | 404090 (antisense eT*eG*eA*eT*e[5mC]*dA*dT*dG*dA*dA*dT*dT*dA*dT*d[5mC]*eA*eT*eT*eT*e[5mC]) [compound 404090] | 42 |  |  |  |  |  |  |  |  |  |  |  |  |  |  |  |  |  |  |  | 
7 | ISIS 445498: 5-8-5 or 6-8-6 MOE microwalk gapmer (Table 44) (antisense GGTGCACAGTTTCTGGCAGG; sugars from the 5' end e6 d8 e6, backbone and methylation of C not given here) |  | 66 | 102 | 3.4 | 0.24 | 28 | 47 | 3241 | 1197 | 802 | 9.4 | 5 | 13.9 | 417 | 124 | 3.7 | 0.14 | 25 | 0.5 | 3.1 | HCT [8]: 49%; Lymphocyte [8]: 89%; Neutrophil [8]: 9%; Platelets [8]: 1061 nL⁻¹; RBC [8]: 8.5 pL⁻¹; WBC [8]: 13 nL⁻¹; hemoglobin [8]: 14.7 g/dL; monocytes [8]: 2.0%
8 | ISIS 445503: 5-8-5 or 6-8-6 MOE microwalk gapmer (Table 44) (antisense GCATTGGTGCACAGTTTCTG; sugars from the 5' end e6 d8 e6, backbone and methylation of C not given here) |  | 1314 | 852 | 3.4 | 0.28 | 29 | 46 | 6436 | 1475 | 309 | 9.2 | 8 | 13.6 |  |  |  |  |  |  |  | 
9 | ISIS 445504: 5-8-5 or 6-8-6 MOE microwalk gapmer (Table 44) (antisense GGCATTGGTGCACAGTTTCT; sugars from the 5' end e6 d8 e6, backbone and methylation of C not given here) |  | 71 | 107 | 3.4 | 0.17 | 29 | 49 | 3578 | 959 | 826 | 9.6 | 5 | 14.7 | 206 | 86 | 3.5 | 0.11 | 26 | 0.4 | 4.3 | HCT [8]: 50%; Lymphocyte [8]: 87%; Neutrophil [8]: 10%; Platelets [8]: 776 nL⁻¹; RBC [8]: 8.9 pL⁻¹; WBC [8]: 16 nL⁻¹; hemoglobin [8]: 14.7 g/dL; monocytes [8]: 2.0%
10 | ISIS 445505: 5-8-5 or 6-8-6 MOE microwalk gapmer (Table 44) (antisense CGGCATTGGTGCACAGTTTC; sugars from the 5' end e6 d8 e6, backbone and methylation of C not given here) |  | 116 | 153 | 3.2 | 0.18 | 29 | 49 | 3447 | 818 | 725 | 9.6 | 5 | 14.6 | 356 | 243 | 3.6 | 0.15 | 24 | 0.4 | 3.8 | HCT [8]: 50%; Lymphocyte [8]: 87%; Neutrophil [8]: 10%; Platelets [8]: 1089 nL⁻¹; RBC [8]: 9.1 pL⁻¹; WBC [8]: 21 nL⁻¹; hemoglobin [8]: 15.0 g/dL; monocytes [8]: 2.5%
11 | ISIS 445509: 5-8-5 or 6-8-6 MOE microwalk gapmer (Table 44) (antisense CGGACGGCATTGGTGCACAG; sugars from the 5' end e6 d8 e6, backbone and methylation of C not given here) |  | 80 | 117 | 3.1 | 0.17 | 29 | 51 | 3758 | 1104 | 1085 | 10.2 | 5 | 15.3 | 676 | 291 | 3.5 | 0.14 | 27 | 0.5 | 4.0 | HCT [8]: 47%; Lymphocyte [8]: 84%; Neutrophil [8]: 11%; Platelets [8]: 1115 nL⁻¹; RBC [8]: 8.4 pL⁻¹; WBC [8]: 17 nL⁻¹; hemoglobin [8]: 14.1 g/dL; monocytes [8]: 3.8%
12 | ISIS 445532: 5-8-5 or 6-8-6 MOE microwalk gapmer (Table 44) (antisense CGGCATTGGTGCACAGTT; sugars from the 5' end e5 d8 e5, backbone and methylation of C not given here) |  | 395 | 360 | 2.9 | 0.20 | 23 | 48 | 5490 | 1116 | 689 | 9.7 | 7 | 14.8 |  |  |  |  |  |  |  | 
